Measurements from paper PMC8725855 (Journal of Enzyme Inhibition and Medicinal Chemistry, 2021).
Starred links: 1 amine or outer side, 2 acyl side, 3 side chain; linkers in the order of their positions; H or OH if unused. Suc = O=C(CCC(=O)[*:2])[*:1]

What was measured:
[1] = test system: A549 cells; assay: Cytotoxicity in A549 cells in the presence of biotin (biotin receptor competition); assay type: cell-based, human
Experimental: To explore the contribution of biotin receptor to the transport of biotin conjugates, Deac-SS-Biotin (9) and biotin were evaluated for the antiproliferative activity against A549 cells.
Figure 6. In vitro cytotoxicity of biotin, Deac (13), and Deac-SS-Biotin (9) in A549 cells. Cytotoxicity of biotin, Deac + biotin, and Deac-SS-Biotin + biotin in A549 cells (n = 3).
(§1) 24 h later, triplicate wells were treated with media and the compounds being tested. After 72 h of incubation at 37 °C in 5% CO2, the drug-containing medium was removed and replaced with […] of fresh medium containing 5 mg/mL MTT solution. After 4 h of incubation, the medium with MTT was removed, and […] of dimethyl sulfoxide (DMSO) was added to each well. The plates were gently agitated until the purple formazan crystals were dissolved, and the OD490 values were determined using a microplate reader (MK3, Thermo, Germany). The data were calculated and plotted as the percent viability compared to the control.

[2] = test system: mouse fibroblasts L929 cells; assay type: cell-based; settings: MTT, 72 h incubation, normal cells; read-out: IC50 (μM) ± SD L929
Experimental: (§2) All cell lines were purchased from the American Type Culture Collection (ATCC, Manassas, VA)[29].
as §1

[3] = test system: lung adenocarcinoma A549 cells; assay type: cell-based, human; settings: MTT, 72 h incubation; read-out: IC50 (μM) ± SD A549
Experimental: as §2, §1

[4] = test system: gastric adenocarcinoma SGC-7901 cells; assay type: cell-based, human; settings: MTT, 72 h incubation; read-out: IC50 (μM) ± SD SGC-7901
Experimental: as §2, §1

[5] = test system: cervical carcinoma HeLa cells; assay type: cell-based, human; settings: MTT, 72 h incubation; read-out: IC50 (μM) ± SD Hela
Experimental: as §2, §1

[6] = In vitro release of Deac from biotin conjugates with DTT (HPLC); assay type: physicochemical; settings: 5 μM conjugate
Experimental: To investigate the mechanism of GSH-triggered drug release, the in vitro drug release profiles of Deac-SS-Biotin (9) and Deac-Biotin (10) were investigated using DTT (Glutathione mimetic). As shown in Figure 5(A), almost none of Deac was released from Deac-SS-Biotin (9) within 24 h in blank PBS (pH 7.2–7.4, without DTT), and more than 70% of Deac was released within 8 h in the presence of 5, 10, and 20 μM DTT. By contrast, there was negligible Deac (<1.0%) released from Deac-Biotin (10) after 24 h incubation in the presence or absence of 20 μM DTT (Figure 5(B)). […] Furthermore, Deac release from the Deac-SS-Biotin (9) at 10 μM DTT was also investigated by HPLC analysis (Figure 5(C)). Free Deac-SS-Biotin (9) was eluted at 10.8 min in HPLC chromatogram. As 10 μM DTT was added to Deac-SS-Biotin (9), it was sheared by DTT. As chemical reaction involved, this scission was subjected to intramolecular cyclisation, followed by ring-forming condensation, resulting in the liberation of Deac. The peak at 14.3 min appeared accompanied by the disappearance of Deac-SS-Biotin (9), and well-matched with free Deac.
Figure 5. In vitro release of Deac from prodrugs. (A) Release profiles of Deac from Deac-SS-Biotin (9, 5 μM) with 0 μM, 5 μM, 10 μM and 20 μM DTT in PBS (pH 7.2–7.4) (n = 3). (B) Release profiles of Deac from Deac-Biotin (10, 5 μM) with 0 μM, 5 μM, 10 μM and 20 μM DTT in PBS (pH 7.2–7.4) (n = 3). (C) HPLC spectra of Deac-SS-Biotin (9, 5 μM) with 10 μM DTT at 0 and 24 h.
The release of Deac from Deac-SS-Biotin was studied in PBS (pH 7.2–7.4) containing 20% DMSO with 0, 5, 10, or 20 μM, dithiothreitol (DTT), respectively. Briefly, biotin-conjugates (5 μM) were incubated in 10 ml of release medium at 37 °C. At timed intervals, 0.1 ml of sample was withdrawn, and the content of Deac, Deac-Biotin, and Deac-SS-Biotin was determined by HPLC (HPLC-LC-20AT, Shimadzu using SPD-20A UV as the detector, C18 (4.6 × 250 mm, […]) as HPLC analysis column. Method: gradient: 45% methanol in water as mobile elution, flow rate: 1.0 ml min^-1). The UV detector was kept at 254 nm.

[7] = Physiological stability by HPLC analysis; assay type: physicochemical; settings: 5 µM; water, PBS, and cell culture fluid; 72 h incubation, room temperature
Experimental: Figure 4. Stabilities of Deac-SS-Biotin (9, 5 µM) in water, and PBS cell culture fluid were investigated by HPLC analysis. (A) HPLC analysis of Deac-SS-Biotin (9) in water after incubation for and 72 h; (B) HPLC analysis of Deac-SS-Biotin (9) in PBS after incubation for and 72 h; (C) HPLC analysis of Deac-SS-Biotin (9) in cell culture fluid after incubation for and 72 h.
To 8 ml of water, PBS, or cell culture fluid, 2 ml of DMSO stock solution of Deac-SS-Biotin was added. The mixture was incubated with gentle shaking for 72 h at room temperature during which the mixture was measured by HPLC spectra.

[8] = biological target: porcine brain tubulin (Sus scrofa, UniProt P02550+P02554)
Chain of porcine brain tubulin (P02554 whole entry): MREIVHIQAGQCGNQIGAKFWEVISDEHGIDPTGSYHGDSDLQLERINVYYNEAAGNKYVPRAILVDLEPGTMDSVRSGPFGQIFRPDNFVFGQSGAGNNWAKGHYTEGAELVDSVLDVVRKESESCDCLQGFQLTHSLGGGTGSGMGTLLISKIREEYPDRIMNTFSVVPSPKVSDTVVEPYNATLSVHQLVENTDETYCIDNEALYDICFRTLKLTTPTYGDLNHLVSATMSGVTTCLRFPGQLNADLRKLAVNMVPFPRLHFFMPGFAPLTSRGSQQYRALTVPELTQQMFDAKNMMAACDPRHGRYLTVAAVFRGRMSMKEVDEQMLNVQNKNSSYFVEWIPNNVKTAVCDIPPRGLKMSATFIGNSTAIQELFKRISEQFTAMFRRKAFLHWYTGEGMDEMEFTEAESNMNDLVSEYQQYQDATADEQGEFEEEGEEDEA
Chain of porcine brain tubulin (P02550 whole entry): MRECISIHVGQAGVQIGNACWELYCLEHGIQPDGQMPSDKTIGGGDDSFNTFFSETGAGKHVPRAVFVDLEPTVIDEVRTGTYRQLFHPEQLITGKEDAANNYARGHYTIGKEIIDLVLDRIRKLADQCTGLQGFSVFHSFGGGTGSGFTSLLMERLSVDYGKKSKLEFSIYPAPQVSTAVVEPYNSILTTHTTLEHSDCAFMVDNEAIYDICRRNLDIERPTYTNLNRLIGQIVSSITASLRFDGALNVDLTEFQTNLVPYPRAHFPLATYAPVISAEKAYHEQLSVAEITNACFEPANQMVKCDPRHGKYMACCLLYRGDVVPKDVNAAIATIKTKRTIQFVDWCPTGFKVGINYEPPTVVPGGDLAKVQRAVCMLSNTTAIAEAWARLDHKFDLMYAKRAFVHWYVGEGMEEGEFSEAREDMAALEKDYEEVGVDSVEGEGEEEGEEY
Experimental: To examine the biological mechanism of biotin conjugates, Deac-SS-Biotin (9) was evaluated for its effects on tubulin polymerisation (Figure 7).
Figure 7. The effect of Deac-SS-Biotin (9) on tubulin polymerisation. […] The reaction was monitored at 37 °C.
First, 96-well plate was incubated with […] of inhibitors in various concentrations at 37 °C for 1 min. Then […] of the tubulin reaction mix was added. The samples were mixed well, and tubulin assembly was monitored (emission wavelength of 420 nm; excitation wavelength pf 360 nm) at 1 min intervals for 90 min at 37 °C using a plate reader (FAS-Calibur, BD Biosciences, USA).

[9] = test system: cells over-expressing active legumain (M38L, HCT116); settings: HCT116 vs HEK293, M4C, SW620; cited from earlier work

Molecule	IC50 [2] [µM]	IC50 [3] [µM]	IC50 [4] [µM]	IC50 [5] [µM]	also measured
2-((2-((((S)-2,3,4,10-tetramethoxy-9-oxo-5,6,7,9-tetrahydrobenzo[a]heptalen-7-yl)carbamoyl)oxy)ethyl)disulfanyl)ethyl 5-((3aS,4S,6aR)-2-oxohexahydro-1H-thieno[3,4-d]imidazol-4-yl)pentanoate [Compound 9]	4.22 ± 0.102	0.085 ± 0.008	0.124 ± 0.011	0.108 ± 0.01	cell viability ([1]; A549, compound at 2-fold IC50, biotin 0.075 μM): 23.6%; cell viability ([1]; A549, compound at 2-fold IC50, biotin 0.60 μM): 68.9%; cell viability ([1]; A549, compound at 2-fold IC50, in the absence of biotin): 17.7%; Deac released ([6]; PBS pH 7.2–7.4, in the presence of 5, 10, and 20 μM DTT, within 8 h, 37 °C): more than 70%; Deac released ([6]; blank PBS (pH 7.2–7.4, without DTT), within 24 h, 37 °C): almost none; peak area and peak height (HPLC stability) [7]: nearly remained unchanged; anti-tubulin polymerisation activity after coincubation with DTT ([8]; compound at 5 µM and DTT at 10 µM): strong anti-tubulin polymerisation activity; inhibition activity on tubulin polymerisation ([8]; compound at 5 µM, without DTT): weak inhibition activity
2-((2-oxo-2–(2-(5-((3aS,4S,6aR)-2-oxohexahydro-1H-thieno[3,4-d]imidazol-4-yl)pentanoyl)hydrazinyl)ethyl)thio)-N-((S)-2,3,4,10-tetramethoxy-9-oxo-5,6,7,9-tetrahydrobenzo[a]heptalen-7-yl)acetamide [Compound 11c]	10.7 ± 0.2	1.31 ± 0.092	1.95 ± 0.071	2.17 ± 0.1	–
4-oxo-4–(2-(5-((3aS,4S,6aR)-2-oxohexahydro-1H-thieno[3,4-d]imidazol-4-yl)pentanoyl)hydrazinyl)-N-((S)-2,3,4,10-tetramethoxy-9-oxo-5,6,7,9-tetrahydrobenzo[a]heptalen-7-yl)butanamide [Compound 11a]	> 20	6.52 ± 0.19	7.52 ± 0.12	3.5 ± 0.15	–
5-((3aS,4S,6aR)-2-oxohexahydro-1H-thieno[3,4-d]imidazol-4-yl)-N-((S)-2,3,4,10-tetramethoxy-9-oxo-5,6,7,9-tetrahydrobenzo[a]heptalen-7-yl)pentanamide [Compound 10]	15.8 ± 0.31	4.85 ± 0.13	4.9 ± 0.18	6.35 ± 0.11	Deac released ([6]; PBS pH 7.2–7.4, after 24 h incubation in the presence or absence of 20 μM DTT): < 1.0%
5-oxo-5–(2-(5-((3aS,4S,6aR)-2-oxohexahydro-1H-thieno[3,4-d]imidazol-4-yl)pentanoyl)hydrazinyl)-N-((S)-2,3,4,10-tetramethoxy-9-oxo-5,6,7,9-tetrahydrobenzo[a]heptalen-7-yl)pentanamide [11 b]	13.4 ± 0.18	2.23 ± 0.12	2.29 ± 0.09	6.94 ± 0.16	–
5: legumain-cleavable peptide (Suc-Ala-Ala-Asn-Val)-colchicine (Suc-AANV-colchicine) [Compound 5]	–	–	–	–	toxicity to cells over-expressing active legumain compared to cells expressing low levels of active or only prolegumain [9]: more toxic
O=C(O)CCCC[C@@H]1SC[C@@H]2NC(=O)N[C@@H]21 [biotin, reference compound]	–	–	–	–	cytotoxicity alone ([1]; A549, biotin alone at various concentrations): no cytotoxicity
